Reference: EP0591378B1, “METHOD OF PREVENTING AND TREATING CHEMOTHERAPY-INDUCED ALOPECIA” (Hairbiotech, Inc., priority 1991, dated 1993)
Where “and” joins values, the source holds several entries; their conditions need not be identical. Equal entries are not always repeated. Entries after “also recorded” stand apart in the source; their conditions may differ.

Legend:
[1] = system: Cytoxan/Adriamycin-Induced Alopecia; test: Alopecia induced by Cytoxan/Adriamycin combination in young rats; assay type: in vivo, Sprague Dawley rats
Description: Eight 4-day old Sprague Dawley rats were randomized in two groups of 4 rats each. […] Group II received buffer injections and served as controls. One day after stopping EGF or buffer injections all rats received Cytoxan 25 mg/kg i.p. x 1 day and Adriamycin 2.5 mg/kg i.p. x 3 days. In Group II, all rats had 3+ alopecia over head and neck area. In contrast, in Group I one rat had mild alopecia, one rat minimal alopecia, and two rats no detectable alopecia over head and neck. (FIGURE 5).
(§1) Topical Application of 1,25-dihydroxyvitamin D3: • 1,25-Dihydroxyvitamin D3 was dissolved in absolute ethanol and applied topically with an applicator. Control animals were similarly treated with the same amount of ethanol. Animals were then kept individually separated for a period of three hours following which the treated area was carefully washed with soap and water and dried. Treatment was given daily beginning on day 5 after birth and ending on day 10.
Chemotherapy: • All chemotherapies were given I.P. and started at 11 days of age. CTX, 35 mg/kg, was given for one day only. VP-16, 1.5 mg/kg, was given for three days. For CTX and ADM combination, CTX, 25 mg/kg was given for one day and ADM, 2.5 mg/kg, for three days. At these doses neither CTX nor ADM alone will produce alopecia. Alopecia was recorded on the tenth day from beginning chemotherapy.
A total of 4 experiments were carried out. […]

VP-16-induced alopecia = test: VP-16 (Etoposide)-induced alopecia in young rats; assay type: in vivo
Description: Twelve 7 day old rats were randomized in two groups. Group I was treated daily with buffer 0.1 ml s.c. for four days. The second Group was treated daily with Vitamin D3 50µg s.c. over head for four days. After stopping the buffer or Vitamin D3 treatment, all rats received 1.5 mg/kg i.p. of VP-16 (Etoposide) daily for three days.
as §1
Chemotherapy: • All chemotherapies were given I.P. and started at 11 days of age. CTX, 35 mg/kg, was given for one day only. VP-16, 1.5 mg/kg, was given for three days. For CTX and ADM combination, CTX, 25 mg/kg was given for one day and ADM, 2.5 mg/kg, for three days. […] Alopecia was recorded on the tenth day from beginning chemotherapy.
A total of 4 experiments were carried out. In the first experiment, protection from Cytoxan-induced alopecia was examined. The experimental group was pretreated with 0.2 µg of 1,25-dihydroxyvitamin D, in 0.15 ml of absolute ethanol applied topically over the head and neck and the control group received 0.15 ml of alcohol. […] The second experiment was carried out under similar conditions to examine protection from VP-16-induced alopecia. […] The third experiment was designed to examine protection from alopecia induced by Cytoxan-Adriamycin combination. There were 11 rats in each group. […] In the fourth experiment, protection from VP-16-induced alopecia was similarly examined except that the dose of 1,25-dihydroxyvitamin D3 was reduced to 0.1 µg in 0.1 ml absolute ethanol applied topically over the head area only.
RO 23-7553 (1,25 dihydroxy-16-ene-23-yne-cholecalciferol) was dissolved in absolute ethanol and applied topically with an applicator. Control animals were similarly treated with the same amount of ethanol. Animals were then kept individually separated for a period of three hours following which the treated area was carefully washed with soap and water and dried. Treatment was given daily beginning on day 9 after birth and ending on day 14.
On day 15 all animals received VP-16, 1.5 mg/kg i.p., for three days. Alopecia was recorded on day 25.
Thirteen rats were randomized in two groups. Experimental group, 7 rats; control group, 6 rats. The experimental group was pretreated with 1 µg of RO 23-7553 in 0.2 ml absolute ethanol applied topically over the neck and back and the control group received 0.2 ml of absolute ethanol.

Cytoxan-induced alopecia = Cytoxan-induced alopecia in young rats; assay type: in vivo
hair growth [2] = test: Stimulation of hair regrowth on the shaven back of rats; assay type: in vivo, Sprague Dawley rats
Description: The backs of nineteen 25 day old Sprague Dawley rats were shaven and randomized in two groups.
Group I (control 10 rats) received 0.1 ml of ethanol applied topically once daily to the shaven area for 14 days.
Group II (Calcitriol 9 rats) received 50 ng of 1,25-dihydroxyvitamin D3 in 0.1 ml of ethanol applied topically once daily to the shaven area for 14 days.
On day 15 stimulation of hair regrowth was assessed by reshaving an area 6 cm x 6 cm in diameter. The hair was collected and weighed. The difference between two groups was highly statistically significant. P. value 0.003 (see Table III and Figure 11).

hair growth [3] = test: as above; assay type: in vivo, Sprague Dawley rats; details: observation in treated rats during the chemotherapy-induced alopecia studies
[4] = system: EGF receptors on breast cancer cells; details: cited from earlier work
[5] = system: EGF receptors on a cell line established from rat calvaria; details: cited from earlier work
ARA-C-induced alopecia = ARA-C-induced alopecia in young rats; assay type: in vivo, Sprague Dawley rats; details: Alopecic drug Cytarabine (ARA-C) 50 mg/kg i.p. daily for 7 days, 50 µg daily i.p. or s.c. for 4 days prior to chemotherapy, 1 experiment, 8 animals, uniformly observed in all treated animals
Description: Sprague Dawley rats were purchased from Charles River Laboratories, Wilmington, MA. Cytosar-U (ARA-C) was from the Upjohn Company, Kalamazoo, MI. Receptor grade EGF from mouse submaxillary glands, human recombinant EGF, dimethyl sulfoxide (DMSO) and Vitamin D3 were purchased from Sigma Chemical Co., St. Louis, MO. aFGF was purchased from AMGEN Corp., Thousand Oaks, CA.
All rats from each experiment were treated with ARA-C 50 mg/kg intraperitoneally (i.p.) daily for 7 days. For subcutaneous (s.c.) injections, EGF and FGF were prepared in PBS 1% BSA. Alopecia was always recorded on day 12 of experiment, and scored as previously described (Hussein et al, Science, 249:1564-1566, 1990; Jimenez et al, FASEB J., 1991).
For topical treatment, murine EGF was prepared as follows: One vial of EGF (100 µg) was dissolved in 0.2 ml of PBS 1% BSA and 0.12 ml of this solution was added to 0.48 of DMSO. Three hours prior to ARA-C injection, 0.1 ml of the EGF-DMSO mixture was applied to each rat over a 1 cm^2 area between the shoulders using a rubber tip applicator. Rats were then kept individually separated for a period of three hours, following which the treated area was carefully washed with soap and water and dried. Treatment was continued for 7 days. […]
Fourteen 7-day old rats were randomized in two groups. […] Alopecia was recorded on day 12 of experiment. […]

SMILES: C=C1/C(=C\C=C2/CCC[C@]3(C)[C@@H]([C@H](C)CCCC(C)(C)O)CC[C@@H]23)C[C@@H](O)C[C@@H]1O [1,25-dihydroxyvitamin D3]
- protection from alopecia induced by Cytoxan-Adriamycin combination ([1]; pretreatment 0.2 µg in 0.15 ml absolute ethanol topically over head and neck, CTX 25 mg/kg one day and ADM 2.5 mg/kg three days I.P., 11 rats, all rats): protected
- protection from VP-16-induced alopecia (VP-16-induced alopecia; applied topically 0.5 µg daily in 50% ethanol or DMSO): protected
- protection from VP-16-induced alopecia (VP-16-induced alopecia; pretreatment 0.1 µg in 0.1 ml absolute ethanol topically over the head area only, VP-16 1.5 mg/kg I.P. for three days, all rats): protected primarily at the site of 1,25-dihydroxyvitamin D3 application; also recorded: less generalized and was more limited to the site of application
- protection from VP-16-induced alopecia (VP-16-induced alopecia; pretreatment 0.2 µg in 0.15 ml absolute ethanol topically over head and neck, VP-16 1.5 mg/kg I.P. for three days, recorded on tenth day, all rats): protected; also recorded: not limited to the site of application but involved the entire body
- protection from Cytoxan-induced alopecia (Cytoxan-induced alopecia; pretreatment 0.2 µg in 0.15 ml absolute ethanol topically over head and neck, day 5 to day 10 after birth, CTX 35 mg/kg I.P. one day, recorded on tenth day, all animals): protected
- Hair Weight, Mean S.E.M. (hair growth [2]; 50 ng in 0.1 ml ethanol topically once daily for 14 days, 9 rats, day 15, P. value 0.003 versus control (113 ± 8)): 164 ± 13 Mg.
- Hair Weight (individual rats) (hair growth [2]; 50 ng in 0.1 ml ethanol topically once daily to the shaven area for 14 days, reshaved area 6 cm x 6 cm on day 15, listed as Calcitriol): 135 Mg. and 202 Mg. and 143 Mg. and 150 Mg. and 253 Mg. and 130 Mg. and 177 Mg. and 140 Mg. and 147 Mg.
- coat of hair and hair length in the treated area (hair growth [3]): better coat of hair and longer hair in the treated area
- effect on EGF receptors on breast cancer cells [4]: increase
- effect on EGF receptors on a cell line established from rat calvaria [5]: increase

SMILES: C=C1/C(=C\C=C2/CCC[C@]3(C)C([C@H](C)CC#CC(C)(C)O)=CC[C@@H]23)C[C@@H](O)C[C@@H]1O [RO 23-7553, 1,25 dihydroxy-16-ene-23-yne-cholecalciferol]
- protection from VP-16-induced alopecia (VP-16-induced alopecia; pretreatment 1 µg in 0.2 ml absolute ethanol topically over neck and back, day 9 to day 14 after birth, VP-16 1.5 mg/kg i.p. three days from day 15, recorded on day 25, 7 rats, all animals): protected

SMILES: C=C1CC[C@H](O)C/C1=C/C=C1\CCC[C@]2(C)[C@@H]([C@H](C)CCCC(C)C)CC[C@@H]12 [Vitamin D3]
- Protection from alopecia (ARA-C-induced alopecia): excellent protection and Yes*
- Protection from alopecia ([1]; Adriamycin 2.5 mg/kg i.p. daily for 3 days plus Cytoxan 25 mg/kg single injection, 50 µg daily i.p. or s.c. for 4 days prior to chemotherapy, 6 experiments, 77 animals, uniformly observed in all treated animals): excellent protection and Yes*
- Protection from alopecia (VP-16-induced alopecia; 50µg s.c. over head daily for four days, then VP-16 1.5 mg/kg i.p. daily for three days, 7 day old rats): protected
- Protection from alopecia (VP-16-induced alopecia; Alopecic drug Etoposide (VP-16) 1.5 mg/kg i.p. daily for 3 days, 50 µg daily i.p. or s.c. for 4 days prior to chemotherapy, 2 experiments, 22 animals, uniformly observed in all treated animals): excellent protection and Yes*
- Protection from alopecia (Cytoxan-induced alopecia; Alopecic drug Cytoxan (CTX) 32.5 mg/kg single injection, 50 µg daily i.p. or s.c. for 4 days prior to chemotherapy, 7 experiments, 89 animals, uniformly observed in all treated animals, 32.5 mg/kg): excellent protection and Yes*
